Assay results published in patent US20240118268A1, “BIOMARKERS ON CELLULAR ENDOCRINE MODELS FOR ENDOCRINE DISRUPTION ASSESSMENT” (priority 2020, published 2024).
Entries after “also recorded” stand apart in the source; their conditions may differ. Like-named read-outs stand apart in the source and are kept apart here.

Columns and labels:
JEG-3 cells = assay: Neutral red cell viability of JEG-3 cells with SLS or PFOA in 10% or 2.5% FBS; details: for living cells: 2.5% FBS
Method: The choriocarcinoma-derived JEG-3 cell-line (ATCC® HTB-36™, Manassas, VA, USA), was grown as recommended by ATCC: Minimum Essential Medium Eagle's medium supplemented with 10% fetal bovine serum, 2 mM of glutamine, 50 IU/mL of penicillin and 50 IU/mL of streptomycin. Cells were detached using trypsin, counted, and then seeded at 80,000 cells/mL in 96-well microplates (200 μL by well) and Nunc® Lab-Tek® II Chamber Slide™ system for immunostaining.
Cells were incubated with sodium lauryl sulfate or perfluorooctanoic acid diluted in culture medium supplemented with either 2.5% or 10% FBS. After 24 hours, cell viability was evaluated using the neutral red assay. Neutral Red solution at 0.4% in water was diluted in culture medium with a ratio of 1:79 to give a final concentration of 50 μg/mL. Neutral Red was distributed in the plates for a 3-hour incubation time at 37° C. The cells were then rinsed with PBS to remove any remaining unincorporated dye. The dye was then released from the cells using a lysis solution (1% acetic acid, 50% ethanol and 49% H2O) and the fluorescence was measured (λex=540 nm, λem=600 nm) using Spark microplate fluorometer (Tecan, Mannedorf, Switzerland).

JEG-Tox cells [1] = assay: Chromatin condensation (Hoechst 33342) as a hallmark of apoptosis; type: cell-based, human; details: 24 h
Method: The UV fluorescent probe Hoechst 33342 enters living and apoptotic cells, intercalating into DNA. The fluorescent signal is proportional to chromatin condensation in apoptosis. The cells were incubated with Hoechst 33342 at 10 μg/mL for 30 minutes at room temperature. The fluorescence signal was read (λex=360 nm, λem=460 nm) using a cytofluorometer (Spark).

JEG-Tox cells [2] = assay: Neutral Red cell viability assay on JEG-Tox cells, 72 h; type: cell-based, human; details: 72 h
Method: (§1) The JEG-3 human trophoblast cell line, derived from a human placental carcinoma, was obtained from the American Type Culture Collection (ATCC HTB-36). Cells were cultured in minimum Essential medium, supplemented with 10% fetal bovine serum (FBS), 1% L-glutamine, 0.5% penicillin and streptomycinin, in 75 cm2 polystyrene flasks. Cell cultures were maintained in a cell culture incubator (37° C., saturated humidity, 5% CO2). When the JEG-3 cells reached subconfluency, they were detached using trypsin-EDTA and counted. The cellular suspension was diluted and seeded either in 96-well microplates at a cellular density of 80,000 cells/mL or in 6-well microplates at 120,000 cells/mL, then kept at 37° C. for 24 h. The cells were incubated with EDCs according to example 1.
(§2) Cell viability was evaluated using the Neutral Red assay. The Neutral Red solution at 0.4% (m/v in water) was diluted in cell culture medium to obtain a working concentration of 50 μg/mL. […] The cells were then rinsed with PBS and lysed with a solution of acetic acid-ethanol (ethanol 50.6%, water 48.4% and acetic acid 1%). After homogenization, the fluorescence signal was scanned (λexc=540 nm, λem=600 nm) with a Tecan Spark microplate reader (Mannedorf, Switzerland). The cell viability was calculated compared to the control cells (the fluorescence of the control cells as 100% viability).

[3] = as above; type: cell-based, human; details: human
Method: as §1, §2

P2X7 receptor = molecular target: T1, P2X7 receptor (Homo sapiens, UniProt Q99572); type: cell-based; details: 72 h; for P2X7 receptor activation (in words): JEG-Tox; for P2X7 activation (concentration): Table 4 summary
T1 construct: P2X7 receptor is expressed by human placenta and JEG-Tox; endogenous in cells; host or cells: JEG-3 human trophoblast cell line (ATCC HTB-36) cultured in 2.5% FBS (JEG-Tox)
T1 sequence (Q99572 1-595): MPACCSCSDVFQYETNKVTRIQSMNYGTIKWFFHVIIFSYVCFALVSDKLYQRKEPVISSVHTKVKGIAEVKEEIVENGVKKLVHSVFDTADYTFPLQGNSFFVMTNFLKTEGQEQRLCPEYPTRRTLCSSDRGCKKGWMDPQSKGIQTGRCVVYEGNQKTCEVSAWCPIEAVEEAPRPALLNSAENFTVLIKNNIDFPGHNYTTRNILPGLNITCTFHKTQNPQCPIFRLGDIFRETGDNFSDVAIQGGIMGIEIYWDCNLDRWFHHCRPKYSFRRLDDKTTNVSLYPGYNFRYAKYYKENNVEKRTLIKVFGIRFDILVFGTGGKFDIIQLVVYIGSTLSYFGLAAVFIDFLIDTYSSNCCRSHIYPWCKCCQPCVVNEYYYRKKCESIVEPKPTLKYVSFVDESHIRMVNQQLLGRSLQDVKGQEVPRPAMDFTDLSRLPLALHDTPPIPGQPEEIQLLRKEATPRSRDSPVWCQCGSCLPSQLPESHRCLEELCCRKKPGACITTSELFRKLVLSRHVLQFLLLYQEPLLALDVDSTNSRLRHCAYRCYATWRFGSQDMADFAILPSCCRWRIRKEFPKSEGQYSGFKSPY
Method: P2X7 cell death receptor activation was evaluated using the YO-PRO-1® assay (Rat et al. J Biol Methods. 2017 Jan. 20; 4(1):e64). YO-PRO-1® probe only enters into cells after P2X7 receptor activation-induced pore opening, and binds to DNA, emitting fluorescence. A 1 mM YO-PRO-1 stock solution was diluted at 1/500 in PBS just before use and distributed into the wells of the microplate. After a 10-minute incubation time at room temperature, fluorescence signal was read (λex=491 nm, λem=509 nm) with a Spark cytofluorometer.
P2X7 cell death receptor activation was evaluated using the YO-PRO-1® assay (Rat et al., 2017). YO-PRO-1® probe only enters into cells after P2X7 receptor activation-induced pore opening, and binds to DNA, emitting fluorescence. A 1 mM YO-PRO-1 stock solution was diluted at 1/500 in PBS just before use and distributed into the wells of the microplate. After a 10-minute incubation time at room temperature, fluorescence signal was read (λex=485 nm, λem=531 nm) with a Spark cytofluorometer.

caspase-1 = assay: Caspase 1 activity, Caspase-Glo 1 Inflammasome Assay; type: cell-based, human; details: 72 h; for Casp-1 activation (concentration): Table 4 summary; for caspase-1 activity compared to control: highest concentration tested
Method: Caspase 1 activity was evaluated using the Caspase-Glo® 1 1 Inflammasome Assay kit. The assay was performed according to the manufacturer's instructions. Luminescence was quantified with a Spark microplate reader.
Caspase 1 activity was evaluated using the Caspase-Glo®1 Inflammasome Assay kit. The assay was performed according to the manufacturer's instructions. Luminescence was quantified with a Spark microplate reader.

caspase-9 = assay: Caspase 9 activity, Caspase-Glo 9 Assay; type: cell-based, human; details: 10 μM
Method: Caspase 9 activity was evaluated using the Caspase-Glo® 9 Assay kit. The assay was performed according to the manufacturer's instructions. Luminescence was quantified with a Spark microplate reader.

[4] = Table 4 summary, loss of viability >= 30% counted as cytotoxic
[5] = JEG-Tox cells, 50 μM, 72 h, read-out: cell viability

SMILES: CCCCCCCCCCCCOS(=O)(=O)[O-].[Na+] [SLS, sodium lauryl sulfate]
- living cells (JEG-3 cells; 30 μg/mL, 24 h): 37%
- living cells (JEG-3 cells; 50 μg/mL, 24 h): 10%
- effect on JEG-3 cell viability (JEG-3 cells; 10% FBS, all tested concentrations (up to 50 μg/mL), 24 h, sulfate): no effect; also recorded: did not observe any cell death
- concentration inducing a dramatic loss of cell viability (JEG-3 cells; diluted in 2.5% FBS): 30 µg/mL

SMILES: OCCOc1ccccc1 [phenoxyethanol]
- concentration at which chromatin condensation was initiated (JEG-Tox cells [1]): 0.15%

SMILES: CCO [ethanol]
- concentration at which chromatin condensation was initiated (JEG-Tox cells [1]): 2.5%

SMILES: Oc1cc(Cl)ccc1Oc1ccc(Cl)cc1Cl [triclosan]
- cytotoxicity (concentration) (JEG-Tox cells [2]; [4]): 10 µM
- viability at 72 h, 10 µM ([3]; JEG-Tox cells, 10 μM, 72 h): 60%
- P2X7 receptor activation compared to control (P2X7 receptor; 1 μM): 1.13 fold change
- P2X7 receptor activation (in words) (P2X7 receptor): triggered P2X7 receptor activation
- P2X7 activation (concentration) (P2X7 receptor): 1 µM
- effect on caspase-1 activity (caspase-1): no effect
- Casp-1 activation (concentration) (caspase-1): No

SMILES: CCCOC(=O)c1ccc(O)cc1 [propylparaben]
- concentration at which chromatin condensation was initiated (JEG-Tox cells [1]): 20 µg/mL
- viability at 72 h, 100 µM [3]: 87%
- P2X7 receptor activation compared to control (P2X7 receptor; 100 μM): 1.69 fold change
- P2X7 receptor activation (in words) (P2X7 receptor): triggered P2X7 receptor activation
- P2X7 activation (concentration) (P2X7 receptor): 1 to 100 µM
- effect on caspase-1 activity (caspase-1): activated caspase-1
- Casp-1 activation (concentration) (caspase-1): 100 µM
- caspase-1 activity compared to control (caspase-1): 2.7 fold change

SMILES: CCCCOC(=O)c1ccccc1C(=O)OCc1ccccc1 [benzyl butyl phthalate]
- cytotoxicity (concentration) (JEG-Tox cells [2]; [4]): 50 µM
- viability at 72 h, 50 µM ([3]; 50 μM, 72 h, read-out: cell viability): 40%
- P2X7 receptor activation compared to control (P2X7 receptor; 10 μM): 1.36 fold change
- P2X7 receptor activation (in words) (P2X7 receptor): triggered P2X7 receptor activation
- P2X7 activation (concentration) (P2X7 receptor): 0.1 to 10 µM
- caspase-9 activity compared to control (caspase-9): 1.28 fold change
- effect on caspase-1 activity (caspase-1): no effect
- Casp-1 activation (concentration) (caspase-1): no

SMILES: CCCCC(CC)COC(=O)c1ccccc1C(=O)OCC(CC)CCCC (stereo not drawn) [DEHP, Di(2-ethylhexyl)phtalate]
- cytotoxicity (concentration) (JEG-Tox cells [2]; [4]): 50 µM
- viability at 72 h, 50 µM [3, 5]: 25%
- P2X7 receptor activation compared to control (P2X7 receptor; 10 μM): 1.16 fold change
- P2X7 receptor activation (in words) (P2X7 receptor): triggered P2X7 receptor activation
- P2X7 activation (concentration) (P2X7 receptor): 10 µM
- caspase-9 activity compared to control (caspase-9): 1.20 fold change
- effect on caspase-1 activity (caspase-1): no effect
- Casp-1 activation (concentration) (caspase-1): no

SMILES: Clc1ccc(C(c2ccc(Cl)cc2)C(Cl)(Cl)Cl)cc1 [4,4′DDT]
- concentration at which chromatin condensation was initiated (JEG-Tox cells [1]): 2 µg/mL

SMILES: CC/C(=C(/CC)c1ccc(O)cc1)c1ccc(O)cc1 [diethylstilbestrol]
- cytotoxicity (concentration) (JEG-Tox cells [2]; [4]): 15 µM
- viability at 72 h, 15 µM ([3]; JEG-Tox cells, 15 μM, 72 h): 40%
- P2X7 receptor activation compared to control (P2X7 receptor; 7.5 μM): 1.48 fold change
- P2X7 receptor activation (in words) (P2X7 receptor): triggered P2X7 receptor activation
- P2X7 activation (concentration) (P2X7 receptor): 7.5 µM
- effect on caspase-1 activity (caspase-1): activated caspase-1
- Casp-1 activation (concentration) (caspase-1): 7.5 µM
- caspase-1 activity compared to control (caspase-1): 1.84 fold change

SMILES: CCCCOC(=O)c1ccccc1C(=O)OCCCC [dibutyl phthalate]
- cytotoxicity (concentration) (JEG-Tox cells [2]; human): 50 µM
- viability at 72 h, 50 µM [3]: 55%
- P2X7 receptor activation compared to control (P2X7 receptor; 10 μM): 1.6 fold change
- P2X7 receptor activation (in words) (P2X7 receptor): triggered P2X7 receptor activation
- P2X7 activation (concentration) (P2X7 receptor): 0.01 to 50 µM
- effect on caspase-1 activity (caspase-1): no effect
- Casp-1 activation (concentration) (caspase-1): no

SMILES: CC12CCC(/C(=C/c3ccccc3)C1=O)C2(C)C (stereo not drawn) [3-benzylidene camphor]
- cytotoxicity (concentration) (JEG-Tox cells [2]; [4]): 50 µM
- viability at 72 h, 50 µM [3, 5]: 70%
- P2X7 receptor activation compared to control (P2X7 receptor; 10 μM): 1.50 fold change
- P2X7 receptor activation (in words) (P2X7 receptor): triggered P2X7 receptor activation
- P2X7 activation (concentration) (P2X7 receptor): 1 to 10 µM
- effect on caspase-1 activity (caspase-1): no effect
- Casp-1 activation (concentration) (caspase-1): no

SMILES: CCOP(=S)(OCC)Oc1cnc2ccccc2n1 [quinalphos]
- concentration at which chromatin condensation was initiated (JEG-Tox cells [1]): 0.3 µg/mL

SMILES: CCC(C)(C)c1ccc(O)cc1 [4-tert-amylphenol]
- concentration up to which no loss of cell viability was observed (JEG-Tox cells [2]): up to 50 μM
- cytotoxicity (concentration) (JEG-Tox cells [2]; [4]): no
- P2X7 receptor activation compared to control (P2X7 receptor; 50 μM): 1.36 fold change
- P2X7 receptor activation (in words) (P2X7 receptor): triggered P2X7 receptor activation
- P2X7 activation (concentration) (P2X7 receptor): 0.1 to 50 µM
- effect on caspase-1 activity (caspase-1): activated caspase-1
- Casp-1 activation (concentration) (caspase-1): 50 µM
- caspase-1 activity compared to control (caspase-1): 1.5 fold change
